Results on 37 compounds are retold here after US10858335B2 (Rigel Pharmaceuticals, Inc., priority 2014, dated 2020).

The experiment relates to GDF8 signaling (p-SMAD-3 (Ser423/425)). As to the kind of experiment: AlphaScreen SureFire SMAD3 (p-Ser423/425) assay, GDF8-stimulated cells (GDF pSMAD). Format: cell-based. As to conditions: Mus musculus, MPC-11, MPC11; GDF8-stimulated; p-SMAD3 AlphaScreen; read-out: GDF pSMAD (MPC11) (inhibition of GDF8 signaling).
Consider `Cc1cc(-c2ncc(N)cc2-c2ccc3nccnc3c2)ccc1F` [compound 239, 6-(4-Fluoro-3-methylphenyl)-5-(quinoxalin-6-yl)pyridin-3-amine], for which the IC50 was found to be 0.266 µM.
For the compound `Cc1cc(-c2ncc(NC3CCN(C)CC3)cc2-c2ccc3nccnc3c2)ccc1F` [compound 240, 6-(4-Fluoro-3-methylphenyl)-N-(1-methylpiperidin-4-yl)-5-(quinoxalin-6-yl)pyridin-3-amine], the IC50 stood at 7.45 µM.
Turning to `Cc1cc(-c2ncc(NC(C)C)cc2-c2ccc3nccnc3c2)ccc1F` [compound 241, 6-(4-Fluoro-3-methylphenyl)-N-isopropyl-5-(quinoxalin-6-yl)pyridin-3-amine], the IC50 turned out to be 4.06 µM.
Take `Cc1cc(-c2ncc(NC3CCCCC3O)cc2-c2ccc3nccnc3c2)ccc1F` (stereo not shown) [compound 243, 2-((6-(4-Fluoro-3-methylphenyl)-5-(quinoxalin-6-yl)pyridin-3-yl)amino)cyclohexan-1-ol]: the IC50 was found to be 11.9 µM.
`Cc1cc(-c2ncc(NCc3cccnc3)cc2-c2ccc3nccnc3c2)ccc1F` [compound 244, 6-(4-Fluoro-3-methylphenyl)-N-(pyridin-3-ylmethyl)-5-(quinoxalin-6-yl)pyridin-3-amine]: the IC50 came to 0.798 µM.
For the compound `Cc1cc(-c2ncc(NCc3ccncc3)cc2-c2ccc3nccnc3c2)ccc1F` [compound 245, 6-(4-Fluoro-3-methylphenyl)-N-(pyridin-4-ylmethyl)-5-(quinoxalin-6-yl)pyridin-3-amine], the IC50 turned out to be 1.26 µM.
Consider `Cc1cc(-c2ncc(NCc3ccccn3)cc2-c2ccc3nccnc3c2)ccc1F` [compound 246, 6-(4-Fluoro-3-methylphenyl)-N-(pyridin-2-ylmethyl)-5-(quinoxalin-6-yl)pyridin-3-amine], for which the IC50 came to 1.29 µM.
Turning to `Cc1cc(-c2ncc(NC3CCN(C)CC3)cc2-c2ccc3ncsc3c2)ccc1F` [compound 247, 5-(Benzo[d]thiazol-6-yl)-6-(4-fluoro-3-methylphenyl)-N-(1-methylpiperidin-4-yl)pyridin-3-amine], the IC50 was 3.2 µM.
For `Cc1cc(-c2ncccc2-c2ccc3cnccc3c2)ccc1F` [compound 249, 6-(2-(4-Fluoro-3-methylphenyl)pyridin-3-yl)isoquinoline] the value was 8.83 µM; for `Cc1cccc(-c2ncccc2-c2ccc3ncn(CCCN4CCOCC4)c3c2)c1` [compound 250, 4-(3-(6-(2-m-Tolylpyridin-3-yl)-1H-benzo[d]imidazol-1-yl)propyl)morpholine], 10.5 µM.
As for `Cc1cccc(-c2ncccc2-c2ccc3ncn(CCCN4CCN(C)CC4)c3c2)c1` [compound 251, 1-(3-(4-Methylpiperazin-1-yl)propyl)-6-(2-m-tolylpyridin-3-yl)-1H-benzo[d]imidazole], the IC50 came out at 17.8 µM.
With `Cc1cc(-c2ncccc2-c2ccc3ncn(CCCN4CCOCC4)c3c2)ccc1F` [compound 252, 4-(3-(6-(2-(4-fluoro-3-methylphenyl)pyridin-3-yl)-1H-benzo[d]imidazol-1-yl)propyl)morpholine], the IC50 turned out to be 12.7 µM.
As for `Cc1cc(-c2ncccc2-c2ccc3ncn(CCCN4CCN(C)CC4)c3c2)ccc1F` [compound 253, 1-(3-(4-Methylpiperazin-1-yl)propyl)-6-(2-(4-fluoro-3-methylphenyl)pyridin-3-yl)-1H-benzo[d]imidazole], the IC50 amounted to 12.4 µM.
As to `Cc1cc(-c2ncccc2-c2ccc3nc(F)cn3c2)ccc1F` [compound 254, 2-Fluoro-6-(2-(4-fluoro-3-methylphenyl)pyridin-3-yl)imidazo[1,2-a]pyridine], the IC50 was determined as 0.39 µM.
As to `Cc1cc(-c2ncccc2-c2ccc3cnc(C(=O)O)n3c2)ccc1F` [compound 257, 6-(2-(4-Fluoro-3-methylphenyl)pyridin-3-yl)imidazo[1,5-a]pyridine-3-carboxylic acid], the IC50 is 1.84 µM.
For the compound `Cc1cc(-c2ncccc2-c2ccn3c(C(=O)O)ncc3c2)ccc1F` [compound 258, 7-(2-(4-Fluoro-3-methylphenyl)pyridin-3-yl)imidazo[1,5-a]pyridine-3-carboxylic acid], the IC50 is 1.27 µM.
Consider `Cc1cc(-c2ncccc2-c2ccn3c(C(=O)NCCCN4CCN(C)CC4)ncc3c2)ccc1F` [compound 264, 7-(2-(4-Fluoro-3-methylphenyl)pyridin-3-yl)-N-(3-(4-methylpiperazin-1-yl)propyl)imidazo[1,5-a]pyridine-3-carboxamide], for which the IC50 came out at 9.15 µM.
As to `Cc1cc(-c2ncccc2-c2ccn3c(C(=O)NCCN4CCN(C)CC4)ncc3c2)ccc1F` [compound 265, 7-(2-(4-Fluoro-3-methylphenyl)pyridin-3-yl)-N-(2-(4-methylpiperazin-1-yl)ethyl)imidazo[1,5-a]pyridine-3-carboxamide], the IC50 amounted to 8.12 µM.
`Cc1cc(-c2ncccc2-c2ccn3c(C(=O)NCCCN4CCOCC4)ncc3c2)ccc1F` [compound 266, 7-(2-(4-Fluoro-3-methylphenyl)pyridin-3-yl)-N-(3-morpholinopropyl)imidazo[1,5-a]pyridine-3-carboxamide]: the IC50 is 4.54 µM.
Take `Cc1cc(-c2ncccc2-c2ccn3c(C(=O)NCCCN(C)C)ncc3c2)ccc1F` [compound 267, N-(3-(Dimethylamino)propyl)-7-(2-(4-fluoro-3-methylphenyl)pyridin-3-yl)imidazo[1,5-a]pyridine-3-carboxamide]: the IC50 was found to be 6.76 µM.
With `Cc1cc(-c2ncccc2-c2ccn3c(C(=O)NCCN(C)C)ncc3c2)ccc1F` [compound 268, N-(2-(Dimethylamino)ethyl)-7-(2-(4-fluoro-3-methylphenyl)pyridin-3-yl)imidazo[1,5-a]pyridine-3-carboxamide], the IC50 was 14.4 µM.
For `Cc1cc(-c2ncccc2-c2ccc3cncn3c2)ccc1F` [compound 269, 6-(2-(4-Fluoro-3-methylphenyl)pyridin-3-yl)imidazo[1,5-a]pyridine] the value was 1.38 µM; for `Cc1cc(-c2ncccc2-c2ccc3cnc(C(=O)NCCN4CCOCC4)n3c2)ccc1F` [compound 271, 6-(2-(4-Fluoro-3-methylphenyl)pyridin-3-yl)-N-(2-morpholinoethyl)imidazo[1,5-a]pyridine-3-carboxamide], 4.44 µM; for `Cc1cc(-c2ncccc2-c2ccc3cnc(C(=O)NCCN4CCCC4)n3c2)ccc1F` [compound 272, 6-(2-(4-Fluoro-3-methylphenyl)pyridin-3-yl)-N-(2-(pyrrolidin-1-yl)ethyl)imidazo[1,5-a]pyridine-3-carboxamide], 3.4 µM.
On to `Cc1cc(-c2ncccc2-c2ccc3cnc(C(=O)NCCCN4CCCC4)n3c2)ccc1F` [compound 273, 6-(2-(4-Fluoro-3-methylphenyl)pyridin-3-yl)-N-(3-(pyrrolidin-1-yl)propyl)imidazo[1,5-a]pyridine-3-carboxamide], for which the IC50 was 9.79 µM.
For `Cc1cc(-c2ncccc2-c2ccn3c(C(=O)NCCCN4CCCC4=O)ncc3c2)ccc1F` [compound 274, 7-(2-(4-Fluoro-3-methylphenyl)pyridin-3-yl)-N-(3-(2-oxopyrrolidin-1-yl)propyl)imidazo[1,5-a]pyridine-3-carboxamide] the value was 14.8 µM; for `Cc1cc(-c2ncccc2-c2ccn3c(C(=O)NCCN4CCOCC4)ncc3c2)ccc1F` [compound 275, 7-(2-(4-Fluoro-3-methylphenyl)pyridin-3-yl)-N-(2-morpholinoethyl)imidazo[1,5-a]pyridine-3-carboxamide], 2.95 µM; for `Cc1cc(-c2ncccc2-c2ccn3c(C(=O)NCCCn4ccnc4)ncc3c2)ccc1F` [compound 277, N-(3-(1H-Imidazol-1-yl)propyl)-7-(2-(4-fluoro-3-methylphenyl)pyridin-3-yl)imidazo[1,5-a]pyridine-3-carboxamide], 1.67 µM.
`Cc1cc(-c2ncccc2-c2ccn3c(C(=O)NCCCN4CCCC4)ncc3c2)ccc1F` [compound 278, 7-(2-(4-Fluoro-3-methylphenyl)pyridin-3-yl)-N-(3-(pyrrolidin-1-yl)propyl)imidazo[1,5-a]pyridine-3-carboxamide]: the IC50 came out at 2.23 µM.
Turning to `Cc1cc(-c2ncccc2-c2ccc3ncc(-c4ccc(S(N)(=O)=O)cc4)n3c2)ccc1F` [compound 281, 4-(6-(2-(4-Fluoro-3-methylphenyl)pyridin-3-yl)imidazo[1,2-a]pyridin-3-yl)benzenesulfonamide], the IC50 came to 1.3 µM.
For `Cc1cc(-c2ncccc2-c2ccc3cnc(-c4ccncc4)n3c2)ccc1F` [compound 282, 6-(2-(4-Fluoro-3-methylphenyl)pyridin-3-yl)-3-(pyridin-4-yl)imidazo[1,5-a]pyridine] the value was 19.4 µM; for `Cc1cc(-c2ncccc2-c2ccc3cnc(-c4cccc(N)c4)n3c2)ccc1F` [compound 283, 3-(6-(2-(4-Fluoro-3-methylphenyl)pyridin-3-yl)imidazo[1,5-a]pyridin-3-yl)aniline], 17.7 µM.
Take `COc1cccc(-c2ncc3cc(-c4cccnc4-c4ccc(F)c(C)c4)ccn23)c1` [compound 286, 7-(2-(4-Fluoro-3-methylphenyl)pyridin-3-yl)-3-(3-methoxyphenyl)imidazo[1,5-a]pyridine]: the IC50 was 12 µM.
For `Cc1cc(-c2ncccc2-c2ccn3c(-c4ccncc4)ncc3c2)ccc1F` [compound 287, 7-(2-(4-Fluoro-3-methylphenyl)pyridin-3-yl)-3-(pyridin-4-yl)imidazo[1,5-a]pyridine], the IC50 was determined as 3.03 µM.
For `Nc1nc2ccc(-c3cccnc3-c3ccc(F)c(Cl)c3)cn2n1` [compound 291, 6-(2-(3-Chloro-4-fluorophenyl)pyridin-3-yl)-[1,2,4]triazolo[1,5-a]pyridin-2-amine] the value was 1.23 µM; for `Cc1cc(-c2nc3c(cc2-c2ccc4ncsc4c2)NC(=O)CO3)ccc1F` [compound 292, 7-(Benzo[d]thiazol-6-yl)-6-(4-fluoro-3-methylphenyl)-1H-pyrido[2,3-b] [1,4]oxazin-2(3H)-one], 1.74 µM; for `Cc1cc(-c2nc3c(cc2-c2ccc4ncccc4c2)NC(=O)CO3)ccc1F` [compound 293, 6-(4-Fluoro-3-methylphenyl)-7-(quinolin-6-yl)-1H-pyrido[2,3-b] [1,4]oxazin-2(3H)-one], 5.54 µM.
